Data taken from patent US11046954B2, “Targeted protein degradation to attenuate adoptive T-cell therapy associated adverse inflammatory responses” (Dana-Farber Cancer Institute, Inc., priority 2015, dated 2021).
Entries after “also recorded” stand apart in the source; their conditions may differ.

What was measured:
FKBP12WT = biological target: T1, FKBP12WT (Homo sapiens, UniProt P62942); experiment: Immunoblot of 293FT cells (CRBN-WT or CRBN−/−) expressing FKBP12WT; assay type: cell-based; conditions: for degradation of FKBP12WT or endogenous FKBP12: isogenic 293FT CRBN-WT or CRBN−/−, 100 nM, 4 hours
T1 construct: HA; expressed in transfected cells; host or cells: 293FT cells (CRBN-WT or CRBN-/-)
T1 sequence (P62942 whole entry): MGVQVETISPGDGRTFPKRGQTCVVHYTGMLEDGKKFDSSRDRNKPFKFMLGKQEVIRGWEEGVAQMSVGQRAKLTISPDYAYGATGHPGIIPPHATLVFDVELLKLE
Method: FIG. 6 is an immunoblot of cells treated with bi-functional molecules described in the present invention. 293FT cells (CRBN-WT or CRBN−/−) expressing either HA-tagged FKBP12WT or FKBP* (also referred to as dFKBP12* herein) were treated with indicated concentrations of dFKBP7 for 4 hours.
Isogenic 293FT cells (CRBN-WT or CRBN−/−) expressing either FKBP12WT or FKBP* were treated with 100 nM of either dFKBP7 or dFKBP13 for 4 hours.
The dTAG is predicated on the selectivity of FKBP* specific ligands over endogenous, wild type FKBP. […] An immunoblot of cells treated with bi-functional molecules described in the present invention was performed. 293FT cells (CRBN-WT or CRBN−/−) expressing either HA-tagged FKBP12WT or FKBP* were treated with indicated concentrations of dFKBP7 for 4 hours.
Isogenic 293FT cells (CRBN-WT or CRBN−/−) were engineered to express either FKBP12WT or FKBP*. Cells were treated with 100 nM of either dFKBP7 or dFKBP13 for 4 hours before lysates were prepared for western immunoblot analysis.

[1] = tested on: indicated proteins fused to mutant FKBP*; experiment: Immunoblot of MV4;11 leukemia cells expressing proteins fused to mutant FKBP* with an HA tag; conditions: 16 hours, indicated concentrations
Text: Immunoblots of MV4; 11 leukemia cells expressing indicated proteins fused to mutant FKBP* with an HA tag.
To test the general utility of the dTAG technology across several protein types, the indicated proteins fused to the dTAG in MV4; 11 leukemia cells were expressed.

FKBP* fused to Nluc = biological target: T2, FKBP* fused to Nluc (Homo sapiens, UniProt P62942+Q96SW2, F37V); experiment: Nluc/Fluc luciferase signal ratio assay of FKBP* degradation in 293FT cells; assay type: cell-based; conditions: wild type or CRBN −/− 293FT; indicated concentrations, 4 hours
T2 construct: Nluc (nano luciferase, fusion partner); expressed in transfected cells; host or cells: 293FT cells (wild type or CRBN-/-)
T2 sequence (P62942 2-108 F37V): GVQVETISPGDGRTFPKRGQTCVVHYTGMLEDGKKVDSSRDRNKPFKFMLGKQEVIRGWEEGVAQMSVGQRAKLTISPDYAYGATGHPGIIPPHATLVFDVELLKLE
T2 sequence (Q96SW2 whole entry, the tested form may be a part): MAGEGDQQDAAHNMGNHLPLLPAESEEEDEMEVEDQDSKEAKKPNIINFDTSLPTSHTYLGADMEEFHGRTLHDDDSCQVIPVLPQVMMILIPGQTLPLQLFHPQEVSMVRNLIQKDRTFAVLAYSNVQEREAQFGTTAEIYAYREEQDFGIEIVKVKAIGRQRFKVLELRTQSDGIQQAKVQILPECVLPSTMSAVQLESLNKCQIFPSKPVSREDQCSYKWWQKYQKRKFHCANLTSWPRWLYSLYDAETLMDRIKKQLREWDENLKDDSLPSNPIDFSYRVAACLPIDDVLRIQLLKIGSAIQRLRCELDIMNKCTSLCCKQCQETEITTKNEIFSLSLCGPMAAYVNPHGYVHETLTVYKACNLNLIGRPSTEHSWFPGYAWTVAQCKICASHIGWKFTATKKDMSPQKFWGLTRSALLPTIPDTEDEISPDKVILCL
T2 sequence (Q16531 whole entry partner, the tested form may be a part): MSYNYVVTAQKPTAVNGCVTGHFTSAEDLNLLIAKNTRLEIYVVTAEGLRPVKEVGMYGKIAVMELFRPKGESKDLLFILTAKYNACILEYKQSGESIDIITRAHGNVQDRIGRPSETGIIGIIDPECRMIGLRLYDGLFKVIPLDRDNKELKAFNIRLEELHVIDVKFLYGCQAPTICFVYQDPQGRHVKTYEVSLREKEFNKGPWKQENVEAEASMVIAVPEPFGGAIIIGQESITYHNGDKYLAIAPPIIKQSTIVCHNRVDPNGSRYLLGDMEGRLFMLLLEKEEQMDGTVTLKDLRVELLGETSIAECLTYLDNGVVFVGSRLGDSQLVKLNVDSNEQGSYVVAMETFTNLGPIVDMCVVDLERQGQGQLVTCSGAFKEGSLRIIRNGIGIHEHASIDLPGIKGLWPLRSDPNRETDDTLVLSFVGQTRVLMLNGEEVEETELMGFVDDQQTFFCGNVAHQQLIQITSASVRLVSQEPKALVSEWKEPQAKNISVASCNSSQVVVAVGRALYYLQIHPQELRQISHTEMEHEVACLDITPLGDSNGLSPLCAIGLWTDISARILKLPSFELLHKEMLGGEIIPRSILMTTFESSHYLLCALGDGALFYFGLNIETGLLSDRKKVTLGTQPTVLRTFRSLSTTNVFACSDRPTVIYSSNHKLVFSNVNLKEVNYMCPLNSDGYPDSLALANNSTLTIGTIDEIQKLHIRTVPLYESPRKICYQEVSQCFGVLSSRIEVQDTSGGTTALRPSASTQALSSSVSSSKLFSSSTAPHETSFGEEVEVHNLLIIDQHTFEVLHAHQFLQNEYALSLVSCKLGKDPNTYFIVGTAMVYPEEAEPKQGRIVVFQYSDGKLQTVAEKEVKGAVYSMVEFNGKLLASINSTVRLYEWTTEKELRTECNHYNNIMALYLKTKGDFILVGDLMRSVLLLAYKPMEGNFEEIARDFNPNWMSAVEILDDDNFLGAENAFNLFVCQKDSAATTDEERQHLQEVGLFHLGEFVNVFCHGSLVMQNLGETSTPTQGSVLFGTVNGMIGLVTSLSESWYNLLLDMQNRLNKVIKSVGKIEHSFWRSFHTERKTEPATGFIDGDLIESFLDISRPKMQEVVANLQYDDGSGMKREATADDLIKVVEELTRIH
Method: FIG. 7A and FIG. 7B are graphs measuring the activity of a panel of dFKBP heterobifunctional compounds in cells expressing FKBP* fused to Nluc. Degradation of FKBP* is measured as a signal ratio (Nluc/Fluc) between NANOluc and firefly luciferase from the same multicistronic transcript in wild type (FIG. 7A) or CRBN −/− (FIG. 7B) 293FT cells treated with indicated concentrations of dFKBPs for 4 hours. A decrease in the signal ratio indicates FKBP* (Nluc) degradation.
In an effort to identify potent and selective dFKPB heterobifunctional compounds, high throughput measurements of targeted FKBP* degradation were measured by surrogate levels of luciferase. Here, FKBP* is exogenously expressed as a multicistronic transcript with two types of luciferase: nano luciferase (NLuc) and firefly luciferase (FLuc) that allow for cell normalized quantification of FKBP* protein levels. Degradation of FKBP* is measured as a signal ration (Nluc/Fluc) in wild type (FIG. 7A) or CRBN −/−(FIG. 7B) 293FT cells treated with indicated concentrations of dFKBPs for 4 hours.

[2] = tested on: NIH3T3 expressing FKBP* fused to the N-terminus of KRASG12V; experiment: Phase contrast imaging of NIH3T3 cells expressing FKBP*-KRASG12V; assay type: cell-based; conditions: NIH3T3 expressing dTAG-KRAS; dFKBP13, 24 hours; vs DMSO
Method: FIG. 23A, FIG. 23B, FIG. 23C, and FIG. 23D are panels of phase contrast images of control NIH3T3 cells or NIH3T3 expressing FKBP* fused to the N-terminus of KRASG12V treated with DMSO or dFKBP13 for 24 hours.

FKBP* = biological target: T3, FKBP* (Homo sapiens, UniProt P62942, F37V); experiment: Immunoblot of 293FT cells (CRBN-WT) expressing FKBP*, pretreated with Carfilzomib, MLN4924 or Lenalidomide before dFKBP13; assay type: cell-based
T3 construct: HA; expressed in transfected cells; host or cells: 293FT cells (CRBN-WT or CRBN-/-)
T3 sequence (P62942 whole entry F37V): as the sequence (P62942 whole entry) above, with F37V counted along it
Method: (§1) 293FT cells (CRBN-WT) expressing FKBP* were pretreated with luM Carfilzomib (proteasome inhibitor), 0.5 uM MLN4924 (neddylation inhibitor), and 10 uM Lenalidomide (CRBN binding ligand) for two hours prior to a 4 hour treatment with dFKBP13.
as §1, with “were engineered to express FKBP*. Cells” for “expressing FKBP*”, “dFKBP13. Lysates were prepared and western immunoblot analysis performed.” for “dFKBP13.”

SMILES	degradation of HA-tagged FKBP12WT (FKBP12WT; 293FT CRBN-WT or CRBN−/−, indicated concentrations of dFKBP7, 4 hours)	degradation of FKBP12WT or endogenous FKBP12 (FKBP12WT)	degradation of proteins fused to dTAG (FKBP*) [1]	FKBP* (Nluc) degradation, signal ratio (Nluc/Fluc) (FKBP* fused to Nluc)	morphological change of cells [2]	degradation of HA-tagged FKBP* by dFKBP13 after MLN4924 pretreatment (FKBP*; 0.5 uM MLN4924 (neddylation inhibitor) two hours prior to 4 hour dFKBP13)	degradation of HA-tagged FKBP* by dFKBP13 after Carfilzomib pretreatment (FKBP*; 1 uM Carfilzomib (proteasome inhibitor) two hours prior to 4 hour dFKBP13)	degradation of FKBP* by dFKBP13 after Lenalidomide pretreatment (FKBP*; 10 uM Lenalidomide (CRBN binding ligand) two hours prior to 4 hour dFKBP13)
CC[C@H](C(=O)N1CCCC[C@H]1C(=O)O[C@H](CCc1ccc(OC)c(OC)c1)c1cccc(OCC(=O)NCCCOCCOCCOCCCNC(=O)COc2cccc3c2C(=O)N(C2CCC(=O)NC2=O)C3=O)c1)c1cc(OC)c(OC)c(OC)c1 (stereo partly shown) [dFKBP7]	not FKBPWT	not FKBP12WT or endogenous FKBP12	degradation was observed with nanomolar concentrations	effectively degrade FKBP* in a cereblon dependent manner	–	–	–	–
CC[C@H](C(=O)N1CCCC[C@H]1C(=O)O[C@H](CCc1ccc(OC)c(OC)c1)c1cccc(OCC(=O)NCCCCCCOc2cccc3c2C(=O)N(C2CCC(=O)NC2=O)C3=O)c1)c1cc(OC)c(OC)c(OC)c1 (stereo partly shown) [dFKBP13]	–	not FKBP12WT or endogenous FKBP12	degradation was observed with nanomolar concentrations	–	cells morphologically revert back to the wild type (DMSO control) state; also recorded: morphological change induced	rescued HA-tagged FKBP*	rescued by the proteasome inhibitor Carfilzomib	abolished dFKBP13-dependent FKBP* degradation
